# Tested on: patients after acute myocardial infarction
# Experiment: Life quality, Seattle Angina Questionnaire (SAQ), same clinical trial
# Assay type: in vivo, human
# Settings: 3 months after treatment
# Text: 3508 patients who were in accordance with the diagnostic standards of AMI for 28 days to 2 years and differentiated as Qi deficiency and blood stagnation syndrome by TCM were studied. 0.5 g Chinese medicine composition prepared by the method of EXAMPLE 1 (Coded as QSYQ) was administrated half an hour after meal, 3 times per day.
# There were 19 questions in the Seattle angina questionnaire (SAQ), including 5 parts: physical limitation (PL), anginal stability (AS), anginal frequency (AF), treatment satisfaction (TS) and disease perception (DP). After being given necessary explanation by doctors, the questions were answered independently by patients.
# They included the overall survival time, angina pectoris score, TCM symptom score and life quality score, where angina pectoris score, TCM symptom score and life quality score were evaluated at randomization, in 1st, 3rd, 6th, 9th, 12th month after treatment and 18th month after follow-up.
# All evaluation results of SAQ were described during the period of observation, and Wilcoxon rank sum test was used for inter-group comparison.
# The evaluation results in the SAQ were depicted in different observations, and inter-group comparison was tested by Wilcoxon Rank-sum test.
smiles,measurement,setting,value
"CC(=O)Oc1ccccc1C(=O)O [Control group, aspirine]","SAQ 3rd question: <1 time per week, % of cases",FAS,(21.15%)
same,"SAQ 3rd question: <1 time per week, cases",FAS,368
same,"SAQ 3rd question: No onset, % of cases",FAS,(0.00%)
same,"SAQ 3rd question: No onset, cases",FAS,0
same,"SAQ 3rd question: ≧3 times per week, % of cases",FAS,(42.13%)
same,"SAQ 3rd question: ≧3 times per week, cases",FAS,733
same,"SAQ 3rd question: ≧4 times per day, % of cases",FAS,(0.92%)
same,"SAQ 3rd question: ≧4 times per day, cases",FAS,16
same,"SAQ Question 1-3: Mildly limited, number of patients",FAS,93
same,"SAQ Question 1-3: Mildly limited, percent of patients",FAS,(5.33%)
same,"SAQ Question 1-3: Moderately limited, number of patients",FAS,23
same,"SAQ Question 1-3: Moderately limited, percent of patients",FAS,(1.32%)
same,"SAQ Question 1-3: Not limited, number of patients",FAS,1318
same,"SAQ Question 1-3: Not limited, percent of patients",FAS,(75.57%)
same,"SAQ Question 1-3: Other reason, number of patients",FAS,9
same,"SAQ Question 1-3: Other reason, percent of patients",FAS,(0.52%)
same,"SAQ Question 1-3: Severely limited, number of patients",FAS,5
same,"SAQ Question 1-3: Severely limited, percent of patients",FAS,(0.29%)
same,"SAQ Question 1-3: Slightly limited, number of patients",FAS,296
same,"SAQ Question 1-3: Slightly limited, percent of patients",FAS,(16.97%)
same,"SAQ Question 1-4: Mildly limited, number of patients",FAS,325
same,"SAQ Question 1-4: Mildly limited, percent of patients",FAS,(18.65%)
same,"SAQ Question 1-4: Moderately limited, number of patients",FAS,120
same,"SAQ Question 1-4: Moderately limited, percent of patients",FAS,(6.88%)
same,"SAQ Question 1-4: Not limited, number of patients",FAS,668
same,"SAQ Question 1-4: Not limited, percent of patients",FAS,(38.32%)
same,"SAQ Question 1-4: Other limited, number of patients",FAS,12
same,"SAQ Question 1-4: Other limited, percent of patients",FAS,(0.69%)
same,"SAQ Question 1-4: Severely limited, number of patients",FAS,29
same,"SAQ Question 1-4: Severely limited, percent of patients",FAS,(1.66%)
same,"SAQ Question 1-4: Slightly limited, number of patients",FAS,589
same,"SAQ Question 1-4: Slightly limited, percent of patients",FAS,(33.79%)
same,"SAQ Question 1-5: Mildly limited, number of patients",FAS,311
same,"SAQ Question 1-5: Mildly limited, percent of patients",FAS,(17.84%)
same,"SAQ Question 1-5: Moderately limited, number of patients",FAS,162
same,"SAQ Question 1-5: Moderately limited, percent of patients",FAS,(9.29%)
same,"SAQ Question 1-5: Not limited, number of patients",FAS,709
same,"SAQ Question 1-5: Not limited, percent of patients",FAS,(40.68%)
same,"SAQ Question 1-5: Other reasons, number of patients",FAS,12
same,"SAQ Question 1-5: Other reasons, percent of patients",FAS,(0.69%)
same,"SAQ Question 1-5: Severely limited, number of patients",FAS,21
same,"SAQ Question 1-5: Severely limited, percent of patients",FAS,(1.20%)
same,"SAQ Question 1-5: Slightly limited, number of patients",FAS,528
same,"SAQ Question 1-5: Slightly limited, percent of patients",FAS,(30.29%)
same,"SAQ Question 1-9: Mildly limited, % of cases",FAS,(18.63%)
same,"SAQ Question 1-9: Mildly limited, cases",FAS,318
same,"SAQ Question 1-9: Moderately limited, % of cases",FAS,(20.04%)
same,"SAQ Question 1-9: Moderately limited, cases",FAS,342
same,"SAQ Question 1-9: Not limited, % of cases",FAS,(3.57%)
same,"SAQ Question 1-9: Not limited, cases",FAS,61
same,"SAQ Question 1-9: Other reaons, % of cases",FAS,(5.98%)
same,"SAQ Question 1-9: Other reaons, cases",FAS,102
same,"SAQ Question 1-9: Severely limited, % of cases",FAS,(38.90%)
same,"SAQ Question 1-9: Severely limited, cases",FAS,664
same,"SAQ Question 1-9: Slightly limited, % of cases",FAS,(12.89%)
same,"SAQ Question 1-9: Slightly limited, cases",FAS,220
same,"SAQ 2nd question: Clearly increased, % of cases",PP,(0.41%)
same,"SAQ 2nd question: Clearly increased, cases",PP,6
same,"SAQ 2nd question: Clearly reduced, % of cases",PP,(22.01%)
same,"SAQ 2nd question: Clearly reduced, cases",PP,322
same,"SAQ 2nd question: Same, % of cases",PP,(41.97%)
same,"SAQ 2nd question: Same, cases",PP,614
same,"SAQ 2nd question: Slightly increased, % of cases",PP,(3.42%)
same,"SAQ 2nd question: Slightly increased, cases",PP,50
same,"SAQ 2nd question: Slightly reduced, % of cases",PP,(32.19%)
same,"SAQ 2nd question: Slightly reduced, cases",PP,471
same,"SAQ 3rd question: 1-2 times per week, % of cases",PP,(32.19%)
same,"SAQ 3rd question: 1-2 times per week, cases",PP,471
same,"SAQ 3rd question: 1-3 times per day, % of cases",PP,(3.42%)
same,"SAQ 3rd question: 1-3 times per day, cases",PP,50
same,"SAQ 3rd question: <1 time per week, % of cases",PP,(22.01%)
same,"SAQ 3rd question: <1 time per week, cases",PP,322
same,"SAQ 3rd question: No onset, % of cases",PP,(0.00%)
same,"SAQ 3rd question: No onset, cases",PP,0
same,"SAQ 3rd question: ≧3 times per week, % of cases",PP,(41.97%)
same,"SAQ 3rd question: ≧3 times per week, cases",PP,614
same,"SAQ 3rd question: ≧4 times per day, % of cases",PP,(0.41%)

# Reference: patent US9211310B2, “Use of a Chinese medicine composition in preparing medicaments for treating secondary prevention of myocardial infarction” (TASLY PHARMACEUTICAL GROUP CO., LTD, priority 2010, dated 2015)
